Measurements from the supplement of paper PMC10307832.

Assays:
Test in all cases: relative viability (nuclei count vs DMSO), 5 days (fraction); higher = more cells survive
NVP-TAE684 + Trametinib = compound: COc1cc(N2CCC(N3CCN(C)CC3)CC2)ccc1Nc1ncc(Cl)c(Nc2ccccc2S(=O)(=O)C(C)C)n1 [NVP-TAE684] + CC(=O)Nc1cccc(-n2c(=O)n(C3CC3)c(=O)c3c(Nc4ccc(I)cc4F)n(C)c(=O)c(C)c32)c1 [Trametinib] (partner 0.02 µM)
How it was run: (§1)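 Dosing by pin tool came one day after lung cancer cell lines were seeded in 1536-well plates, using either one drug or a fixed anchor-drug dose plus five library-drug doses (not always all listed) in √10 steps. After 5 days, nuclei were counted on 4× images. Relative viability is treated-well nuclei count divided by vehicle-well nuclei count, and values are medians of duplicate plates.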

[1] = compound: C1=CC=C2C(=C1)N=C(S2)C(C#N)C3=NC(=NC=C3)NCCC4=CN=CC=C4 + N=C(N)NC(=N)NCCc1ccccc1 [Phenformin] (partner 250 µM)
How it was run: as §1

Vandetanib + Tozasertib = compound: COc1cc2/c(=N/c3ccc(Br)cc3F)nc[nH]c2cc1OCC1CCN(C)CC1 [Vandetanib] + Cc1cc(Nc2cc(N3CCN(C)CC3)nc(Sc3ccc(NC(=O)C4CC4)cc3)n2)n[nH]1 [Tozasertib] (partner 0.1 µM)
How it was run: as §1

CUDC-101 + Dasatinib = compound: C#Cc1cccc(Nc2ncnc3cc(OC)c(OCCCCCCC(=O)NO)cc23)c1 [CUDC-101] + Cc1nc(Nc2ncc(C(=O)Nc3c(C)cccc3Cl)s2)cc(N2CCN(CCO)CC2)n1 [Dasatinib] (partner 0.075 µM)
How it was run: as §1

UMC-11
relative viability (NVP-TAE684 + Trametinib; first compound 0.2 µM): 0.701 | relative viability (NVP-TAE684 + Trametinib; first compound 0.6325 µM): 0.636 | relative viability (NVP-TAE684 + Trametinib; first compound 2 µM): 0.434 | relative viability ([1]; first compound 0.005 µM): 0.3 | relative viability ([1]; first compound 0.01581 µM): 0.315 | relative viability ([1]; first compound 0.05 µM): 0.32 | relative viability ([1]; first compound 0.1581 µM): 0.325 | relative viability ([1]; first compound 0.5 µM): 0.336 | relative viability (Vandetanib + Tozasertib; first compound 0.02 µM): 0.204 | relative viability (Vandetanib + Tozasertib; first compound 0.06325 µM): 0.187 | relative viability (Vandetanib + Tozasertib; first compound 0.2 µM): 0.175 | relative viability (Vandetanib + Tozasertib; first compound 0.6325 µM): 0.189 | relative viability (Vandetanib + Tozasertib; first compound 2 µM): 0.205 | relative viability (CUDC-101 + Dasatinib; first compound 0.01 µM): 0.436 | relative viability (CUDC-101 + Dasatinib; first compound 0.03162 µM): 0.406 | relative viability (CUDC-101 + Dasatinib; first compound 0.1 µM): 0.35 | relative viability (CUDC-101 + Dasatinib; first compound 0.3162 µM): 0.227 | relative viability (CUDC-101 + Dasatinib; first compound 1 µM): 0.0988
